In patent US20250064799A1, “ORAL FORMULATIONS OF LEVOSIMENDAN FOR TREATING PULMONARY HYPERTENSION WITH HEART FAILURE WITH PRESERVED EJECTION FRACTION” (Tenax Therapeutics, Inc., priority 2021, published 2025):
Where “and” joins values, the source holds several entries; their conditions need not be identical. Equal values may be shown once. Entries after “also recorded” stand apart in the source; their conditions may differ.

Legend:
patients with PH-HFpEF [1] = experiment: Adverse events, tolerability and final dose, I.V. to oral levosimendan transition study; type: in vivo, human; details: for SAEs attributed/related to study drug: 6-8 week transition
Source text: The following considerations justified amending the TNX-LVO-05 study protocol: • 1. The amended TNX-LVO-05 protocol included the same patients enrolled in the original study. This was not a new study of the patients currently enrolled. This was open label, with no blinding of patients or physicians, and no control group. • 2. The scope and purpose of the study was unchanged, with the exception that it offered the further extension of treatment allowed by the transition to oral therapy (See item #4). • 3. The amendment clearly delineated a stepwise and thoughtful titration of patients from their intravenous to oral levosimendan to ensure the safe and effective transition of their levosimendan regimen. • a. Patients were started on 1 mg daily, representing a dose generally less than half their total weekly weight-based dose regimen. • b. Patients were titrated based on tolerance to the daily levosimendan paying attention to their symptoms of PH-HFpEF, and special attention to specific adverse events of interest, heart rate and blood pressure. A daily diary captured patient vitals and symptoms to aid their physician in titrating patients at two-week intervals. • c. Patient response also was evaluated by clinical measures to provide the physician with additional information on the patient's response. • d. While most patients were expected to receive 2-3 mg daily at the conclusion of the transition study, the dose escalation strategy was included to allow all patients to realize the same benefit as they did from the I.V. formulation. • e. To document the sustained efficacy of the oral formulation in these patients, patients had to undergo a six-minute walk test and patient questionnaire prior to and at the end of the transition study. • 4. The transition to oral levosimendan allowed for extension of the study from its initial two years to an additional three years. This offers these PH-HFpEF patients, with no other treatments available, to continue on a drug that they have responded to. • 5. The amendment required patients to sign a revised informed consent to ensure patients are completely informed concerning the transition amendment. Patients that preferred to continue with their weekly 24-hour I.V. regimen were allowed to continue through the initial two-year period of the study and then will be withdrawn.
Methods: Patients with PH-HFpEF who were in the open label extension study of the HELP Trial for more than 18 months volunteered to enroll in this transition protocol. Patients were initiated with 1 mg/day of oral levosimendan 5-7 days after the last IV levosimendan infusion. The oral dose was increased every 2 weeks by 1 mg/day to a maximum of 4 mg/day over an 8 week period. The highest daily dose was determined by the investigator based on clinical assessments of symptoms and side effects. The primary safety endpoints were change in resting heart rate and blood pressure from baseline to final study visit and all other adverse events. Secondary efficacy endpoints included change in six-minute walk distance (6MWD), serum brain natriuretic peptide (BNP) or NT-proBNP levels, and quality of life as assessed by Kansas City Cardiomyopathy Questionnaire clinical summary score (KCCQ-CS) and overall summary score (KCCQ-OS) from baseline to final study visit. All comparisons were the baseline and at week 6-8 measurements at the highest daily dose of levosimendan. […]

patients with PH-HFpEF [2] = experiment: TNX-LVO-05 open-label extension, weekly 24-hour I.V. levosimendan: 6MWT and HR; type: in vivo, human; design: TNX-LVO-05 (WK 24/48) 6MWT: unit not given beside the values; details: individual patients, week 24/48
Source text: PH-HFpEF is a progressive, fatal disease for which there are no approved therapies. All patients that the 6-week parent TNX-LVO-04 study (also referred to as the initial Help Study) underwent assessments of safety and efficacy in a double-blind randomized protocol. […] For these reasons, all participating patients were allowed to enter an open-label extension study (also referred to as TNX-LVO-05), to provide ongoing levosimendan therapy for two additional years.
The efficacy of the once weekly levosimendan regimen is supported by an active metabolite with an extended half-life of 70-80 hours. The metabolite peaks approximately two days after completing the weekly dose, declining through the remainder of the week. Data from the parent TNX-LVO-04 study indicate patients' response to therapy peaks early in the week, followed by a decline in keeping with exposure to the active metabolite. Patients that entered TNX-LVO-05 were required to undergo the insertion of a port-a-cath, learn how to self-administer the levosimendan infusion through a port-a-cath at home, and weekly administer IV levosimendan through their port-a-cath for 24 hours. It is important to note that patients who entered TNX-LVO-05 have chosen to continue their 24-hour weekly levosimendan dose regimen, acknowledging that patients recognize the benefits of the drug.

[3] = test system: Patient 019-002 with PH-HFpEF; experiment: HELP Study 24-hour open label lead-in infusion, rest and exercise right heart catheterization, Patient 019-002; type: in vivo, human
Description: FIG. 3: Pulmonary Capillary Wedge Pressure (PCWP) of Patient […] of HELP Study.
During the HELP Study, as described in PCT International Application Publication No. WO 2021/126884, the entire contents of which are incorporated by reference, Patient 019-002 was administered empagliflozin shortly after beginning levosimendan therapy.
Specifically, Patient 019-002 had established PH-HFpEF and was initially enrolled into the HELP Trial. The diagnosis of PH-HFpEF was confirmed by rest and exercise right heart catheterization. […] The PCWP of 35 mmHg at rest increased with exercise to 55 mmHg at baseline. […] Thus, levosimendan produced a 40% fall in resting PCWP and a 33% fall in exercise PCWP. In addition, at baseline the CVP was 18 mmHg and increased to 30 mmHg with exercise. Following the 24 hours of i.v. levosimendan the CVP fell to 12 mmHg at rest and to 21 mmHg with exercise. Thus, levosimendan produced a 33% fall in resting CVP, and a 30% fall in CVP with exercise. Accordingly, the response of Patient 019-002 to levosimendan treatment was typical of other patients in the study in terms of improvements to their hemodynamic profile (FIG. 3).

[4] = test system: phosphodiesterase-3 (PDE3); details: in vitro; cited from earlier work
[5] = in vivo; cited from earlier work
[6] = 24 hours of i.v. levosimendan vs baseline

SMILES: C[C@@H]1CC(=O)NN=C1c1ccc(NN=C(C#N)C#N)cc1 [levosimendan]
- tolerability of transition to oral levosimendan (patients with PH-HFpEF [1]; 6-8-week period, after >18 months of IV levosimendan): well tolerated without safety concerns
- other adverse events (patients with PH-HFpEF [1]; 18 patients, oral levosimendan): No other adverse events
- serious adverse event not related to study drug (patients with PH-HFpEF [1]; 18 patients, oral levosimendan, listed as study drug): One patient experienced a serious adverse event (SAE) unrelated to study drug; also recorded: One patient had a serious adverse event not related to the study drug
- SAEs attributed/related to study drug (patients with PH-HFpEF [1]; oral levosimendan): no SAEs related
- SAEs attributed/related to study drug (patients with PH-HFpEF [1]; oral levosimendan, listed as study drug): no SAEs were reported
- TNX-LVO-05 (WK 24/48) 6MWT (patients with PH-HFpEF [2]): 310 and 180 and 312 and 255 and 347 and 393 and 313 and 91 and 274 and 213 and 225 and 174 and 590
- TNX-LVO-05 (WK 24/48) HR (patients with PH-HFpEF [2]): 62 (3×) and 64 and 85 (2×) and 70 and 69 and 74 and 58 and 73 and 82 and 75 and 87 and 65 and 78 and 77 and 91
- fall in CVP with exercise [3, 6]: 30%
- fall in exercise PCWP [3, 6]: 33%
- fall in resting CVP [3, 6]: 33%
- fall in resting PCWP [3, 6]: 40%
- CVP at rest ([3]; following 24 hours of i.v. levosimendan (baseline 18 mmHg)): 12 mmHg
- CVP with exercise ([3]; following 24 hours of i.v. levosimendan (baseline 30 mmHg)): 21 mmHg
- PCWP at rest ([3]; following 24 hours of i.v. levosimendan (baseline 35 mmHg)): 21 mmHg
- PCWP with exercise ([3]; following 24 hours of i.v. levosimendan (baseline 55 mmHg)): 37 mmHg
- pulmonary capillary wedge pressure (PCWP) after levosimendan administration (FIG. 3) ([3]; single 24-hour open label lead-in infusion): decrease
- PDE3/PDE4 inhibition ratio [4]: 10,000
- parent half-life [5]: approximately 1 hour
